Reference: ChEMBL document CHEMBL1126970, “Development of 1,4-benzodiazepine cholecystokinin type B antagonists” (J Med Chem, 1993)

Tests used:
[1] = biological target: T1, Cholecystokinin receptor type A (Rattus norvegicus) (UniProt P30551); assay: (§1) Inhibition of binding of [125I]CCK-8 to cholecystokinin type A receptor in rat pancreatic tissue; parameters: concentration or dose not given beside the values; settings: concentration not given here
T1 sequence (whole entry): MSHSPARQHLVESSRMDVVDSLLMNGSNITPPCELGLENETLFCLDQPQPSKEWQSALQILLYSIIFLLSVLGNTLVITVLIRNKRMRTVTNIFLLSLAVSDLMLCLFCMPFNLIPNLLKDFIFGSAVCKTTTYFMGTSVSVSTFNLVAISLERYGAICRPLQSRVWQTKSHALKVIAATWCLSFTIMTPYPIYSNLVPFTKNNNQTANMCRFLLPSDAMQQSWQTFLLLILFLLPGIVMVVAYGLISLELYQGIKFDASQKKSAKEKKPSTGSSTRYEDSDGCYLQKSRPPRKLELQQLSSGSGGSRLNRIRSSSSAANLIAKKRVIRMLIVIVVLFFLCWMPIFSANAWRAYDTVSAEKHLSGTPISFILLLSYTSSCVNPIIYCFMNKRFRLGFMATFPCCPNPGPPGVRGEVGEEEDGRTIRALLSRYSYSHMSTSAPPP

[2] = organism: Cavia porcellus; assay: Selectivity ratio between CCK-B and CCK-A receptor; parameters: reference not given here
[3] = Bioavailability in rat after 120 minutes at an oral dose of 2.5 mg/kg; type: ADME, organism-based; settings: plasma
[4] = biological target: T2, Cholecystokinin receptor type A (Rattus norvegicus, UniProt P30551); assay: as §1
T2 sequence (P30551 whole entry): T1 sequence (whole entry)

[5] = Bioavailability in rat after 30 minutes at an oral dose of 2.5 mg/kg; type: ADME, organism-based; settings: plasma
[6] = Inhibition of binding of [125I]-CCK-8 to the cholecystokinin type B receptor
[7] = test system: Mus musculus; assay: Effective dose required to antagonise pentagastrin stimulated acid secretion in mouse when administered orally 85-100 min prior to pentagastrin; type: functional; settings: po
[8] = test system: Mus musculus; assay: Effective dose required to antagonise pentagastrin stimulated acid secretion in mouse when administered iv 60-80 min prior to pentagastrin; type: functional
[9] = test system: Mus musculus; assay: Effective dose required to antagonise pentagastrin stimulated acid secretion in mouse when administered iv 5 min prior to pentagastrin; type: functional

SMILES | Selectivity ratio [2] | IC50 [4] | other results
CN1C(=O)C(NC(=O)Nc2ccc(Cl)nc2)N=C(c2ccccc2)c2ccccc21 (stereo not drawn) | > 65 | – | inhibition [1]: 23%
O=C(Nc1ccc(Cl)cc1)NC1N=C(c2ccccc2)c2ccccc2N(C[C@@H](O)CCl)C1=O (mixture of isomers) | > 500 | – | inhibition [1]: > 15%
Cc1cccc(NC(=O)NC2N=C(c3ccccc3)c3ccccc3N(CCO)C2=O)c1 (racemic) | 6 | 270 nM | concentration at 2 h [3]: 95 ng/mL; concentration at 0.5 h [5]: 156 ng/mL
Cc1cccc(NC(=O)NC2N=C(c3cccnc3)c3ccccc3N(C)C2=O)c1 (racemic) | 25 | 2300 nM | concentration at 2 h [3]: 191 ng/mL; concentration at 0.5 h [5]: 219 ng/mL
O=C(Nc1ccc(Cl)cc1)NC1N=C(c2ccccc2)c2ccccc2N(C[C@@H](O)CO)C1=O (mixture of isomers) | > 30 | – | inhibition [1]: > 9%
Cc1cccc(NC(=O)NC2N=C(c3ccccc3)c3ccccc3N(CCN(C)C)C2=O)c1 (racemic) | 73 | 1890 nM | concentration at 0.5 h [5]: 75 ng/mL
CCOC(=O)CN1C(=O)C(NC(=O)c2ccc(Cl)cc2)N=C(c2ccccc2F)c2ccccc21 (racemic) | 0.06 | – | IC50 [6]: 1900 nM
O=C(Nc1ccc(Cl)cc1)N[C@@H]1N=C(c2ccccc2)c2ccccc2N(CC(=O)N2CCCC2)C1=O | 643 | 900 nM | –
COc1cccc(NC(=O)NC2N=C(c3ccccc3)c3ccccc3N(CCC(=O)O)C2=O)c1 (racemic) | 0.036 | 9 nM | –
C=Cc1cccc(NC(=O)N[C@@H]2N=C(c3ccccc3)c3ccccc3N(C)C2=O)c1 | 48 | 1670 nM | –
CN1C(=O)C(NC(=O)Nc2ccc3c(c2)OCO3)N=C(c2ccccc2)c2ccccc21 (stereo not drawn) | > 100 | – | inhibition [1]: > 3%
O=C(Nc1ccc(Cl)cc1)NC1N=C(c2ccccc2)c2ccccc2N(C[C@@H](O)CN2CCCC2)C1=O (mixture of isomers) | > 10 | – | inhibition [1]: > 16%
CCN(CC)C(=O)CN1C(=O)C(NC(=O)Nc2cccc(OC)c2)N=C(c2ccccc2)c2ccccc21 (racemic) | 545 | 120 nM | –
CN1C(=O)[C@H](NC(=O)Nc2ccccc2Cl)N=C(c2ccccc2)c2ccccc21 | 6.7 | 410 nM | –
CCOC(=O)CN1C(=O)C(NC(=O)N[C@@H](C)c2ccccc2)N=C(c2ccccc2)c2ccccc21 (mixture of isomers) | < 48 | 4800 nM | –
Cc1cccc(NC(=O)N[C@@H]2N=C(c3ccccc3)c3ccccc3N(C)C2=O)c1 [L-365260] | – | – | concentration at 2 h [3]: 194 ng/mL; concentration at 0.5 h [5]: 172 ng/mL
Cc1cccc(NC(=O)NC2N=C(c3ccccc3)c3ccccc3N(CCOC(=O)CCC(=O)O)C2=O)c1 (racemic) | 5 | 37 nM | –
CCOC(=O)CCN1C(=O)C(NC(=O)Nc2cccc(OC)c2)N=C(c2ccccc2)c2ccccc21 (racemic) | 340 | 340 nM | –
Cc1cccc(NC(=O)NC2N=C(c3ccccc3)c3ccccc3N(CC(=O)O)C2=O)c1 (racemic) | 0.02 | 7.6 nM | –
O=C(Nc1ccc(Cl)cc1)NC1N=C(c2ccccc2)c2ccccc2N(CC(=O)N2CCCC2)C1=O (racemic) | 625 | 1000 nM | –
CN1C(=O)C(NC(=O)Nc2cccc(-c3ccccc3)c2)N=C(c2ccccc2)c2ccccc21 (racemic) | 1 | 123 nM | –
Cc1ccc(NC(=O)NC2N=C(c3ccccc3)c3ccccc3N(CC(=O)Nc3ccncc3)C2=O)cc1 (racemic) | 21 | 4000 nM | –
CN1C(=O)C(NC(=O)Nc2ccccn2)N=C(c2ccccc2)c2ccccc21 (racemic) | 1.3 | 447 nM | –
CN1C(=O)C(NC(=O)Nc2cccc(C(F)(F)F)c2)N=C(c2ccccc2)c2ccccc21 (stereo not drawn) | 195 | 740 nM | concentration at 2 h [3]: 102 ng/mL; concentration at 0.5 h [5]: 120 ng/mL
CCN(CC)C(=O)C(C)N1C(=O)C(NC(=O)Nc2ccc(Cl)cc2)N=C(c2ccccc2)c2ccccc21 (racemic) | 19 | 410 nM | –

SMILES | Selectivity ratio [2] | IC50 [4] | other results
CN1C(=O)C(NC(=O)Nc2ccc3ccccc3n2)N=C(c2ccccc2)c2ccccc21 (stereo not drawn) | 7 | 180 nM | –
CN1C(=O)C(NC(=O)Nc2cccc(CC(=O)O)c2)N=C(c2ccccc2)c2ccccc21 (stereo not drawn) | 12 | 61 nM | –
CN1C(=O)C(NC(=O)Nc2cccc(C#N)c2)N=C(c2ccccc2)c2ccccc21 (stereo not drawn) | 115 | 3100 nM | –
COc1ccc(NC(=O)NC2N=C(c3ccccc3)c3ccccc3N(C)C2=O)cc1 (racemic) | 6 | 165 nM | –
CCN(CC)C(=O)CN1C(=O)C(NC(=O)Nc2ccccc2Cl)N=C(c2ccccc2)c2ccccc21 (racemic) | 53 | 200 nM | –
CN1C(=O)[C@H](NC(=O)Nc2cccc(N)c2)N=C(c2ccccc2)c2ccccc21 | 131 | 4330 nM | –
CCOC(=O)CN1C(=O)C(NC(=O)Nc2ccc(Cl)cc2)N=C(c2ccccc2F)c2ccccc21 (racemic) | 183 | – | ED50 [7]: 6 mg/kg; ED50 [8]: > 2 mg/kg; IC50 [6]: 1.2 nM; ED50 [9]: 0.7 mg/kg
Cc1cccc(NC(=O)NC2N=C(c3ccccc3)c3ccccc3N(CC(=O)Nc3ccncc3)C2=O)c1 (racemic) | 23 | 1100 nM | –
COc1ccc(NC(=O)NC2N=C(c3ccccc3)c3ccccc3N(C)C2=O)cn1 (stereo not drawn) | 6.3 | 2900 nM | –
CN1C(=O)C(NC(=O)NCc2cccc(C(C)(C)O)c2)N=C(c2ccccc2)c2ccccc21 (stereo not drawn) | 69 | 406 nM | –
CN1C(=O)C(NC(=O)Nc2cccc(C(=O)O)c2)N=C(c2ccccc2)c2ccccc21 (racemic) | 1.4 | 14 nM | –
Cc1cccc(NC(=O)NC2N=C(c3ccccc3)c3cccnc3N(C)C2=O)c1 (racemic) | < 0.01 | 104 nM | –
COC(=O)Cc1cccc(NC(=O)NC2N=C(c3ccccc3)c3ccccc3N(C)C2=O)c1 (stereo not drawn) | 64 | 2100 nM | –
C[C@H](NC(=O)NC1N=C(c2ccccc2)c2ccccc2N(C)C1=O)c1ccccc1 (mixture of isomers) | 0.04 | 430 nM | –
COC(=O)[C@H]1CCCN1OC(=O)CN1C(=O)C(NC(=O)Nc2cccc(OC)c2)N=C(c2ccccc2)c2ccccc21 (mixture of isomers) | 144 | 1400 nM | –
CCN(CC)C(=O)CN1C(=O)C(NC(=O)Nc2cccc(C)c2)N=C(c2ccccn2)c2ccccc21 (racemic) | 776 | 435 nM | –
CN1C(=O)[C@H](NC(=O)Nc2cccc(CN)c2)N=C(c2ccccc2)c2ccccc21 | 0.22 | 160 nM | –
Cc1cccc(NC(=O)NC2N=C(c3ccccc3)c3cnccc3N(C)C2=O)c1 (racemic) | 0.1 | 61.4 nM | –
C#Cc1cccc(NC(=O)NC2N=C(c3ccccc3)c3ccccc3N(C)C2=O)c1 (stereo not drawn) | 18 | 402 nM | –
O=C(Nc1ccc(Cl)cc1)NC1N=C(c2ccccc2)c2ccccc2NC1=O (racemic) | 0.4 | 110 nM | –
CN1C(=O)[C@H](NC(=O)Nc2ccc(Cl)cc2)N=C(c2ccccc2)c2ccccc21 | 112 | 2200 nM | –
Cc1cccc(NC(=O)NC2N=C(c3ccccc3)c3ccccc3N(CC(=O)N3CCN(C)CC3)C2=O)c1 (racemic) | 217 | 760 nM | –
CN1C(=O)C(NC(=O)Nc2ccc(Cl)cc2)N=C(c2ccccc2)c2ccccc21 (racemic) | 15 | 1200 nM | –
CCN(CC)C[C@H](O)CN1C(=O)C(NC(=O)Nc2ccc(Cl)cc2)N=C(c2ccccc2)c2ccccc21 (mixture of isomers) | > 7 | – | inhibition [1]: > 14%
